Common to all, as to assay: Bacterial growth minimal inhibitory concentration (microdilution, cation-adjusted Mueller-Hinton Broth)
A general note: Broth dilution looks for growth in wells or tubes with falling amounts of substance.

One assay deals with S. aureus A798. The assay is classed as cell-based, Staphylococcus aureus. As to conditions: multiply-resistant strain (methicillin- and quinolone-resistant); for MIC: Staphylococcus aureus, A798. The method, boiled down: (§1)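 Broth microdilution in cation-adjusted Mueller-Hinton Broth per CLSI M7-A7; MICs in mg/L. S. aureus A798 is methicillin- and quinolone-resistant, K. pneumoniae T6474 penicillin-, cephalosporin- and quinolone-resistant; E. coli ATCC25922 and P. aeruginosa ATCC 27853 are quinolone-sensitive.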

Another assay relates to E. coli ATCC25922. Type of assay: cell-based. Conditions: quinolone-sensitive strain; for MIC: Escherichia coli, ATCC25922. The method, boiled down:
as §1

In another assay the test system is K. pneumoniae T6474. The assay is classed as cell-based, Klebsiella pneumoniae. As to conditions: multiply-resistant strain (penicillin-, cephalosporin- and quinolone-resistant); for MIC: Klebsiella pneumoniae, T6474. The method, boiled down: as §1
Another assay has as its system P. aeruginosa ATCC 27853. Type of assay: cell-based, Pseudomonas aeruginosa. As to conditions: quinolone-sensitive strain; for MIC: Pseudomonas aeruginosa, ATCC27853. The method, boiled down: as §1

≈ marks a conversion by molar mass, not a printed value.

As usually defined, the MIC is the lowest concentration that inhibits growth of the organism. High values mean weaker potency, low ones greater potency. On to `NCCOc1cccc(-c2cccc(CNCC[C@H]3CN(c4ccc5c(n4)NC(=O)CO5)C(=O)O3)c2)c1` [Example 1, 6-[(S)-5-(2-{[3′-(2-amino-ethoxy)-biphenyl-3-ylmethyl]-amino}-ethyl)-2-oxo-oxazolidin-3-yl]-4H-pyrido[3,2-b][1,4]oxazin-3-one], for which the MIC worked out at 2 mg/L (≈ 3.97 µM) against S. aureus A798, 1 mg/L (≈ 1.99 µM) against E. coli ATCC25922, 1 mg/L (≈ 1.99 µM) in the assay on K. pneumoniae T6474 and 2 mg/L (≈ 3.97 µM) against P. aeruginosa ATCC 27853.

As for `O=C1COc2ccc(N3C[C@H](CCNCc4cccc(-c5cccc(OC[C@H]6CCN6)n5)c4)OC3=O)nc2N1` [Example $124, 6-[(S)-5-(2-{3-[6-((R)-1-azetidin-2-ylmethoxy)-pyridin-2-yl]-benzylamino}-ethyl)-2-oxo-oxazolidin-3-yl]-4H-pyrido[3,2-b][1,4]oxazin-3-one], the MIC in the assay on S. aureus A798 came out at 1 mg/L (≈ 1.88 µM); in the assay with E. coli ATCC25922, 1 mg/L (≈ 1.88 µM); with K. pneumoniae T6474 it was 2 mg/L (≈ 3.77 µM); against P. aeruginosa ATCC 27853, 0.5 mg/L (≈ 0.942 µM).

In the case of `CN1CC(Oc2cccc(-c3cc(CNCC[C@H]4CN(c5ccc6c(n5)NC(=O)CO6)C(=O)O4)ccn3)n2)C1` [Example $185, 6-[(S)-5-(2-{[6′-(1-methyl-azetidin-3-yloxy)-[2,2′]bipyridinyl-4-ylmethyl]-amino}-ethyl)-2-oxo-oxazolidin-3-yl]-4H-pyrido[3,2-b][1,4]oxazin-3-one], the minimal inhibitory concentration (MIC) with S. aureus A798 worked out at 0.125 mg/L (≈ 0.235 µM); in the assay on E. coli ATCC25922, 0.5 mg/L (≈ 0.941 µM); against K. pneumoniae T6474, 0.5 mg/L (≈ 0.941 µM); in the assay with P. aeruginosa ATCC 27853, 1 mg/L (≈ 1.88 µM).

As to `O=C1COc2ccc(N3C[C@H](CCNCc4cccc(-c5cccc(O[C@@H]6CCNC6)n5)c4)OC3=O)nc2N1` [Example $118, 6-[(S)-2-oxo-5-(2-{3-[6-((R)-pyrrolidin-3-yloxy)-pyridin-2-yl]-benzylamino}-ethyl)-oxazolidin-3-yl]-4H-pyrido[3,2-b][1,4]oxazin-3-one], the MIC was determined as 2 mg/L (≈ 3.77 µM) against S. aureus A798, 1 mg/L (≈ 1.88 µM) against E. coli ATCC25922, 2 mg/L (≈ 3.77 µM) in the assay with K. pneumoniae T6474 and 1 mg/L (≈ 1.88 µM) against P. aeruginosa ATCC 27853.

For `COc1cc(OCCN)cc(-c2cccc(CNCC[C@H]3CN(c4ccc5c(n4)NC(=O)CO5)C(=O)O3)c2)c1` [Example 21, 6-[(S)-5-(2-{[3′-(2-amino-ethoxy)-5′-methoxy-biphenyl-3-ylmethyl]-amino}-ethyl)-2-oxo-oxazolidin-3-yl]-4H-pyrido[3,2-b][1,4]oxazin-3-one], the MIC against S. aureus A798 is 0.5 mg/L (≈ 0.937 µM); in the assay with E. coli ATCC25922, 1 mg/L (≈ 1.87 µM); in the assay with K. pneumoniae T6474, 2 mg/L (≈ 3.75 µM); with P. aeruginosa ATCC 27853, 1 mg/L (≈ 1.87 µM).

As for `O=C1CSc2ccc(N3C[C@@H](CCNCc4cccc(-c5cccc(OC[C@@H]6CCN6)n5)c4)OC3=O)cc2N1` [Example $152, 6-[(R)-5-(2-{3-[6-((S)-1-azetidin-2-ylmethoxy)-pyridin-2-yl]-benzylamino}-ethyl)-2-oxo-oxazolidin-3-yl]-4H-benzo[1,4]thiazin-3-one], the minimal inhibitory concentration (MIC) against S. aureus A798 was 4 mg/L (≈ 7.33 µM); in the assay with E. coli ATCC25922 it was 2 mg/L (≈ 3.67 µM); with K. pneumoniae T6474 it was 4 mg/L (≈ 7.33 µM); in the assay on P. aeruginosa ATCC 27853, 1 mg/L (≈ 1.83 µM).

As to `O=C1COc2ccc(N3C[C@H](CCNCc4cccc(-c5cc(O[C@@H]6CCNC6)ncn5)c4)OC3=O)nc2N1` [Example $116, 6-[(S)-2-oxo-5-(2-{3-[6-((R)-pyrrolidin-3-yloxy)-pyrimidin-4-yl]-benzylamino}-ethyl)-oxazolidin-3-yl]-4H-pyrido[3,2-b][1,4]oxazin-3-one], the minimal inhibitory concentration (MIC) with S. aureus A798 was 4 mg/L (≈ 7.52 µM); with E. coli ATCC25922 it was 2 mg/L (≈ 3.76 µM); against K. pneumoniae T6474, 8 mg/L (≈ 15 µM); with P. aeruginosa ATCC 27853, 2 mg/L (≈ 3.76 µM).

Consider `CN(C)CCOc1cnnc(-c2cccc(CNCC[C@H]3CN(c4ccc5c(n4)NC(=O)CO5)C(=O)O3)c2)c1` [Example 10, 6-[(S)-5-(2-{3-[5-(2-dimethylamino-ethoxy)-pyridazin-3-yl]-benzylamino}-ethyl)-2-oxo-oxazolidin-3-yl]-4H-pyrido[3,2-b][1,4]oxazin-3-one], for which the minimum inhibitory concentration (MIC) against S. aureus A798 amounted to 8 mg/L (≈ 15 µM); with E. coli ATCC25922 it was 2 mg/L (≈ 3.75 µM); in the assay on K. pneumoniae T6474 it was 4 mg/L (≈ 7.5 µM); in the assay on P. aeruginosa ATCC 27853 it was 4 mg/L (≈ 7.5 µM).

With `C[C@@H]1[C@H](Oc2cccc(-c3cccc(CNCC[C@H]4CN(c5ccc6c(n5)NC(=O)CO6)C(=O)O4)c3)n2)CN1C` (mixture of isomers) [Example $178, 6-[(S)-5-(2-{3-[6-((2RS,3RS)-1,2-dimethyl-azetidin-3-yloxy)-pyridin-2-yl]-benzylamino}-ethyl)-2-oxo-oxazolidin-3-yl]-4H-pyrido[3,2-b][1,4]oxazin-3-one], the MIC against S. aureus A798 is 0.125 mg/L; against E. coli ATCC25922 it was 0.5 mg/L; in the assay on K. pneumoniae T6474 it was 1 mg/L; against P. aeruginosa ATCC 27853, 1 mg/L.

In the case of `CN(C)CCOc1cccc(-c2cccc(CNCC[C@H]3CN(c4ccc5c(n4)NC(=O)CO5)C(=O)O3)c2)c1` [Example 2, 6-[(S)-5-(2-{[3′-(2-dimethylamino-ethoxy)-biphenyl-3-ylmethyl]-amino}-ethyl)-2-oxo-oxazolidin-3-yl]-4H-pyrido[3,2-b][1,4]oxazin-3-one], the MIC against S. aureus A798 was 0.5 mg/L (≈ 0.941 µM); against E. coli ATCC25922, 2 mg/L (≈ 3.76 µM); in the assay with K. pneumoniae T6474, 2 mg/L (≈ 3.76 µM); with P. aeruginosa ATCC 27853 it was 4 mg/L (≈ 7.52 µM).

For `CCN1CCC(Oc2cccc(-c3cccc(CNCC[C@H]4CN(c5ccc6c(n5)NC(=O)CO6)C(=O)O4)c3)n2)C1` (mixture of isomers) [Example $126, 6-[(S)-5-(2-{3-[6-((RS)-1-ethyl-pyrrolidin-3-yloxy)-pyridin-2-yl]-benzylamino}-ethyl)-2-oxo-oxazolidin-3-yl]-4H-pyrido[3,2-b][1,4]oxazin-3-one], the minimal inhibitory concentration (MIC) in the assay with S. aureus A798 came out at 0.5 mg/L; against E. coli ATCC25922 it was 1 mg/L; with K. pneumoniae T6474, 2 mg/L; against P. aeruginosa ATCC 27853 it was 2 mg/L.

Take `NC1(COc2cccc(-c3cccc(CNCC[C@H]4CN(c5ccc6c(n5)NC(=O)CO6)C(=O)O4)c3)c2)CC1` [Example 14, 6-[(S)-5-(2-{[3′-(1-amino-cyclopropylmethoxy)-biphenyl-3-ylmethyl]-amino}-ethyl)-2-oxo-oxazolidin-3-yl]-4H-pyrido[3,2-b][1,4]oxazin-3-one]: the MIC against S. aureus A798 turned out to be 1 mg/L (≈ 1.89 µM); in the assay on E. coli ATCC25922 it was 2 mg/L (≈ 3.78 µM); against K. pneumoniae T6474, 2 mg/L (≈ 3.78 µM); in the assay on P. aeruginosa ATCC 27853, 8 mg/L (≈ 15.1 µM).

For the molecule `O=C1COc2ccc(N3C[C@H](CCNCc4cccc(-c5cccc(OC[C@@H]6CCNC6)n5)c4)OC3=O)nc2N1` [Example $143, 6-[(S)-2-oxo-5-(2-{3-[6-((R)-1-pyrrolidin-3-ylmethoxy)-pyridin-2-yl]-benzylamino}-ethyl)-oxazolidin-3-yl]-4H-pyrido[3,2-b][1,4]oxazin-3-one], the minimum inhibitory concentration (MIC) came out at 2 mg/L (≈ 3.67 µM) in the assay on S. aureus A798, 2 mg/L (≈ 3.67 µM) with E. coli ATCC25922, 4 mg/L (≈ 7.34 µM) with K. pneumoniae T6474 and 1 mg/L (≈ 1.84 µM) in the assay on P. aeruginosa ATCC 27853.

On to `O=C1COc2ccc(N3C[C@H](CCNCc4cccc(-c5cccc(OC[C@@H]6CCN6)n5)c4)OC3=O)nc2N1.O=CO` [Example $108, 6-[(S)-5-(2-{3-[6-((S)-1-azetidin-2-ylmethoxy)-pyridin-2-yl]-benzylamino}-ethyl)-2-oxo-oxazolidin-3-yl]-4H-pyrido[3,2-b][1,4]oxazin-3-oneformate], for which the “MIC for S. aureus A798” value against S. aureus A798 is 2 mg/L. Besides, the “MIC for E. coli ATCC25922” value in the assay on E. coli ATCC25922 came to 1 mg/L. The “MIC for K. pneumoniae T6474” value in the assay on K. pneumoniae T6474 worked out at 2 mg/L. The “MIC for P. aeruginosa ATCC 27853” value with P. aeruginosa ATCC 27853 is reported as 0.5 mg/L.

Take `C[C@@H]1CN(C)C[C@H]1Oc1cccc(-c2cccc(CNCC[C@H]3CN(c4ccc5c(n4)NC(=O)CO5)C(=O)O3)c2)n1` (relative stereo) [Example $177, 6-[(S)-5-(2-{3-[6-((3S*,4R*)-1,4-dimethyl-pyrrolidin-3-yloxy)-pyridin-2-yl]-benzylamino}-ethyl)-2-oxo-oxazolidin-3-yl]-4H-pyrido[3,2-b][1,4]oxazin-3-one]: the MIC is 0.5 mg/L (≈ 0.895 µM) in the assay on S. aureus A798, 2 mg/L (≈ 3.58 µM) against E. coli ATCC25922, 4 mg/L (≈ 7.16 µM) in the assay with K. pneumoniae T6474 and 4 mg/L (≈ 7.16 µM) with P. aeruginosa ATCC 27853.

For the molecule `O=C1COc2ccc(N3C[C@H](CCNCc4cccc(-c5cc(OC[C@@H]6CCN6)cnn5)c4)OC3=O)nc2N1` [Example $182, 6-[(S)-5-(2-{3-[5-((S)-1-azetidin-2-ylmethoxy)-pyridazin-3-yl]-benzylamino}-ethyl)-2-oxo-oxazolidin-3-yl]-4H-pyrido[3,2-b][1,4]oxazin-3-one], the MIC in the assay with S. aureus A798 was determined as 8 mg/L (≈ 15 µM); against E. coli ATCC25922, 16 mg/L (≈ 30.1 µM); against K. pneumoniae T6474, 16 mg/L (≈ 30.1 µM); in the assay on P. aeruginosa ATCC 27853, 16 mg/L (≈ 30.1 µM).

For `O=C1COc2ccc(N3C[C@H](CCNCc4cccc(-c5cccc(O[C@H]6CCNC6)n5)c4)OC3=O)nc2N1` [Example $119, 6-[(S)-2-oxo-5-(2-{3-[6-((S)-pyrrolidin-3-yloxy)-pyridin-2-yl]-benzylamino}-ethyl)-oxazolidin-3-yl]-4H-pyrido[3,2-b][1,4]oxazin-3-one], the MIC is 0.5 mg/L (≈ 0.942 µM) against S. aureus A798, 1 mg/L (≈ 1.88 µM) in the assay on E. coli ATCC25922, 1 mg/L (≈ 1.88 µM) with K. pneumoniae T6474 and 0.5 mg/L (≈ 0.942 µM) in the assay on P. aeruginosa ATCC 27853.

On to `CN1CC(Oc2cnnc(-c3cccc(CNCC[C@H]4CN(c5ccc6c(n5)NC(=O)CO6)C(=O)O4)c3)c2)C1` [Example $174, 6-[(S)-5-(2-{3-[5-(1-methyl-azetidin-3-yloxy)-pyridazin-3-yl]-benzylamino}-ethyl)-2-oxo-oxazolidin-3-yl]-4H-pyrido[3,2-b][1,4]oxazin-3-one], for which the MIC was 2 mg/L (≈ 3.76 µM) against S. aureus A798, 1 mg/L (≈ 1.88 µM) against E. coli ATCC25922, 2 mg/L (≈ 3.76 µM) in the assay with K. pneumoniae T6474 and 2 mg/L (≈ 3.76 µM) against P. aeruginosa ATCC 27853.

As for `CNCCOc1cncc(-c2cccc(CNCC[C@H]3CN(c4ccc5c(n4)NC(=O)CO5)C(=O)O3)c2)n1` [Example $164, 6-[(S)-5-(2-{3-[6-(2-methylamino-ethoxy)-pyrazin-2-yl]-benzylamino}-ethyl)-2-oxo-oxazolidin-3-yl]-4H-pyrido[3,2-b][1,4]oxazin-3-one], the MIC was found to be 0.5 mg/L (≈ 0.962 µM) against S. aureus A798, 1 mg/L (≈ 1.92 µM) in the assay with E. coli ATCC25922, 1 mg/L (≈ 1.92 µM) against K. pneumoniae T6474 and 0.5 mg/L (≈ 0.962 µM) in the assay with P. aeruginosa ATCC 27853.
